Experimental findings from PubChem BioAssay (NCI) are described below.

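Where inhibition never reached the appropriate level, the endpoint shown equals the highest concentration tested. Otherwise, values were interpolated linearly from a five-concentration, 48-hour dose response in 96-well plates. Abbreviation: GI50, concentration required for 50% inhibition of growth. At the TGI there is no net growth.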

Holding throughout (test): inhibition of tumour cell growth, NCI panel, 48 h
Test [1] deals with HOP-92 NSCLC.
Test [2] deals with HS 578T breast.
In test [3] the test system is SF-295 CNS.
Test [4] concerns SNB-75 CNS.
The subject of test [5] is 786-0 renal.
Test [6] deals with SK-OV-3 ovarian.
The subject of test [7] is SN12C renal.
In test [8] the test system is MALME-3M melanoma.
The subject of test [9] is U251 CNS.
Test [10] has as its system OVCAR-5 ovarian.

As for `CCNC(=O)Oc1ccc(/C(=C(\C)c2ccc(Cl)cc2)c2ccc(OCCN3CCCCC3)cc2)cc1`, the GI50 in [1] was 2.7 µM; in [2], 3.62 µM; in test [3], 1.95 µM; in test [4], 2.67 µM; in test [5], 1.79 µM; in [6], 8.52 µM. The GI50 is 5.95 µM in test [7], 1.78 µM in [8], 4.19 µM in test [9] and 11 µM in test [10]. Further, the TGI stood at 9.25 µM in [1]; 17.2 µM in test [2]; 4.36 µM in [3]; 18.6 µM in test [4]; 3.43 µM in [5]; 21.3 µM in [6]. Besides, the TGI came out at 19.2 µM in test [7], 3.9 µM in test [8], 14.5 µM in [9] and 23.8 µM in [10].

In the case of `CN(C)c1ccc(Sc2ccc3nc(N)nc(N)c3c2)cc1`, the GI50 was 1.32 µM in test [1]; 4.72 µM in test [2]; 0.537 µM in test [3]; 2.14 µM in test [4]; 0.495 µM in test [5]; 2.71 µM in test [6]. The GI50 is 0.761 µM in test [7], 1.09 µM in test [8], 0.446 µM in test [9] and 1.16 µM in test [10]. Also, the TGI in test [1] came out at 5.83 µM; in test [2], 27.4 µM; in [3] it was 14.1 µM; in test [4] it was 16.3 µM; in [5], 2.5 µM; in test [6] it was 16.8 µM. Moreover, the TGI in test [7] stood at 14.2 µM; in test [8], 2.87 µM; in test [9], 4.14 µM; in test [10] it was 21 µM.

In the case of `O=c1[nH]c2cc(O)ccc2n2cc3c(F)cccc3c12`, the GI50 in test [1] was 3.41 µM; in test [2], 3.85 µM; in [3] it was 2.85 µM; in [4] it was 1.76 µM; in [5], 4.29 µM; in test [6], 1.65 µM. The GI50 is 2.57 µM in test [7], 3.96 µM in [8], 2.49 µM in test [9] and above 31.3 µM in [10]. Also, the TGI in test [1], in test [2], in test [3], in [4], in test [5] and in test [6] was above 100 µM throughout. The TGI in test [7], in test [8], in test [9] and in test [10] was above 100 µM each time.

As to `N#Cc1ccc(N2Cc3cc(Cl)ccc3OC3=C2C(=O)N(Cc2ccccc2)C3=O)cc1`, the GI50 in [1] is 1.45 µM; in [2] it was 2.62 µM; in [3], 5.22 µM; in test [4] it was 1.24 µM; in test [5], 1.92 µM; in test [6], 10.9 µM. For the same compound, the GI50 was 1.51 µM in [7], 1.44 µM in test [8], 1.56 µM in test [9] and 1.96 µM in [10]. Besides, the TGI is 3.09 µM in [1]; 9.25 µM in test [2]; 20.4 µM in test [3]; 2.53 µM in test [4]; 3.44 µM in test [5]; 31.5 µM in test [6]. Besides, the TGI amounted to 3.14 µM in test [7], 3.08 µM in [8], 2.98 µM in test [9] and 4.08 µM in test [10].

As for `C#Cc1cccc(Nc2ncnc3ccc(-c4cncc(NS(C)(=O)=O)c4)cc23)c1`, the GI50 in test [1] is 0.447 µM; in test [2], 1.1 µM; in test [3], 2.47 µM; in test [4], 0.524 µM; in [5], 1.77 µM; in test [6], 1.89 µM. The GI50 in [7] was 2.51 µM; in test [8] it was 1.11 µM; in test [9] it was 2.5 µM; in [10], 1.07 µM. Moreover, the TGI in [1] was 3.73 µM; in test [2], 4.65 µM; in [3], 10.5 µM; in test [4], 5.09 µM; in test [5] it was 6.74 µM; in test [6] it was 5.71 µM. Further, the TGI in test [7] was 19.7 µM; in test [8], 9.13 µM; in test [9] it was 10.3 µM; in test [10] it was 16.5 µM.

For the compound `Cn1c(COC(=O)NCCN2CCOCC2)nc2c(N3CCOCC3)nc(-c3ccccc3)nc21`, the GI50 was 0.779 µM in [1]; 1.49 µM in test [2]; 2.09 µM in [3]; 1.11 µM in test [4]; 0.843 µM in [5]; 4.79 µM in test [6]. The GI50 in test [7] was 1.03 µM; in test [8] it was 1.56 µM; in test [9], 1.37 µM; in [10], 1.6 µM. The TGI in test [1] came out at 2.45 µM; in test [2], 5.38 µM; in [3], 5.99 µM; in [4], 2.67 µM; in test [5], 2.23 µM; in test [6], 16.1 µM. In addition, the TGI was 2.6 µM in [7], 3.02 µM in test [8], 2.9 µM in [9] and 3.66 µM in [10].

With `COC(=O)Nc1nc2ccc(Sc3ccc(NC(=O)Nc4cc(C(F)(F)F)ccc4F)cc3)cc2[nH]1`, the GI50 was 2.53 µM in [1]; 1.35 µM in test [2]; 1.96 µM in [3]; 3.32 µM in test [4]; 5.64 µM in test [5]; 5.1 µM in [6]. Further, the GI50 is 3.82 µM in test [7], 2.99 µM in test [8], 3.27 µM in test [9] and 3.5 µM in test [10]. The TGI in [1] came to 10.3 µM; in [2], 7.24 µM; in test [3], 7.52 µM; in test [4], 10.9 µM; in test [5], 13.8 µM; in test [6] it was 14.3 µM. Moreover, the TGI in test [7] amounted to 11 µM; in [8], 23.6 µM; in test [9], 7.28 µM; in test [10], 9.24 µM.
